From PubChem BioAssay (NCI)
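How tested: cells in 96-well plates exposed to compound for 48 hours at five concentrations. TGI: total growth inhibition.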

Tests used:
Assay in all cases: growth of human tumour cells (NCI), 48 h
SF-295 CNS = tested on: SF-295 CNS
M14 melanoma = tested on: M14 melanoma
CAKI-1 renal = tested on: CAKI-1 renal
NCI-H460 lung = tested on: NCI-H460 lung
HL-60(TB) leukemia = tested on: HL-60(TB) leukemia
SR leukemia = tested on: SR leukemia
UACC-62 melanoma = tested on: UACC-62 melanoma
IGROV1 ovarian = tested on: IGROV1 ovarian
SW-620 colon = tested on: SW-620 colon
ACHN renal = tested on: ACHN renal
786-0 renal = tested on: 786-0 renal
PC-3 prostate = tested on: PC-3 prostate
RPMI-8226 leukemia = tested on: RPMI-8226 leukemia
SK-MEL-28 melanoma = tested on: SK-MEL-28 melanoma
MDA-MB-231 breast = tested on: MDA-MB-231 breast
SF-268 CNS = tested on: SF-268 CNS
CCRF-CEM leukemia = tested on: CCRF-CEM leukemia
NCI-H226 lung = tested on: NCI-H226 lung
T-47D breast = tested on: T-47D breast

SMILES | TGI (SF-295 CNS) [µM] | TGI (M14 melanoma) [µM] | TGI (CAKI-1 renal) [µM] | TGI (NCI-H460 lung) [µM] | TGI (HL-60(TB) leukemia) [µM] | TGI (SR leukemia) [µM] | TGI (UACC-62 melanoma) [µM] | TGI (IGROV1 ovarian) [µM] | TGI (SW-620 colon) [µM] | TGI (ACHN renal) [µM] | TGI (786-0 renal) [µM] | TGI (PC-3 prostate) [µM] | TGI (RPMI-8226 leukemia) [µM] | TGI (SK-MEL-28 melanoma) [µM] | TGI (MDA-MB-231 breast) [µM] | TGI (SF-268 CNS) [µM] | TGI (CCRF-CEM leukemia) [µM] | TGI (NCI-H226 lung) [µM] | TGI (T-47D breast) [µM]
O=C(Cn1c2c(c3ccccc31)CCCC2)N1CCCCC1 | > 100 | > 100 | > 100 | > 100 | > 100 | > 100 | > 100 | > 100 | > 100 | > 100 | > 100 | > 100 | > 100 | > 100 | – | – | – | – | –
O=C(OCc1ccccc1)c1ccc(NCc2cc(O)ccc2O)cc1 | 17.1 | 4.02 | 1.79 | 18.7 | 2.56 | – | 3.15 | 2.49 | 3.93 | 2.77 | 2.67 | 2.73 | > 100 | 3 | 6.08 | 2.99 | 2.8 | 7.69 | –
O=c1[nH]nc(-c2ccccc2)n1-c1cccc([N+](=O)[O-])c1 | > 100 | > 100 | > 100 | > 100 | – | > 100 | > 100 | > 100 | > 100 | > 100 | > 100 | – | > 100 | > 100 | > 100 | > 100 | > 100 | > 100 | > 100
Cc1ccc(C)n2c1nc1cc3ccccc3cc12 | > 100 | > 100 | – | – | > 100 | > 100 | 57.1 | > 100 | > 100 | > 100 | > 100 | > 100 | > 100 | > 100 | – | > 100 | > 100 | > 100 | > 100
CC1=NN(C(=O)CC(=O)NC(=O)/C=C\c2ccccc2)C(=O)C1N=Nc1ccc([N+](=O)[O-])cc1 (centres undefined) | > 100 | > 100 | > 100 | > 100 | > 100 | – | > 100 | > 100 | > 100 | > 100 | > 100 | > 100 | > 100 | > 100 | > 100 | > 100 | > 100 | – | > 100
CC(C)(C)[Si](C)(C)OCCc1ccccc1C1CC2(S(=O)(=O)c3ccccc3)ON1CC2S(=O)(=O)c1ccccc1 (centres undefined) | > 100 | > 100 | – | > 100 | – | – | > 100 | > 100 | > 100 | > 100 | > 100 | – | – | > 100 | > 100 | > 100 | > 100 | > 100 | > 100
CNC(=O)CCCNC(=O)CCCCC(=O)N(C)C | > 100 | > 100 | > 100 | > 100 | – | – | > 100 | – | > 100 | > 100 | > 100 | > 100 | > 100 | > 100 | > 100 | > 100 | – | – | > 100
COC1(OC)N=C(N)C2(C#N)C(C)=C3NCN(C)N=C3C12C#N (centres undefined) | > 100 | > 100 | > 100 | – | – | – | > 100 | > 100 | > 100 | > 100 | > 100 | > 100 | > 100 | > 100 | > 100 | > 100 | – | > 100 | > 100
CC(C)(C)n1c(=O)n(-c2ccccc2)n(C(C)(C)C)c1=O | > 100 | > 100 | > 100 | > 100 | > 100 | > 100 | > 100 | > 100 | > 100 | > 100 | > 100 | > 100 | – | > 100 | > 100 | – | > 100 | > 100 | –
CC(=O)O[C@H]1CC[C@H]2[C@@H]3CCC4=C/C(=N/OCCN(C)C)CC[C@]4(C)[C@H]3CC[C@]12C | 17.5 | 10.1 | 27.2 | 20.4 | 3.68 | – | 15.4 | 26.2 | 23.9 | 26.2 | 22.8 | 27.3 | 6.27 | 27.8 | 39.5 | 27.5 | 10.1 | 15.7 | 19.5
CCOC(=O)[C@@H]1ON2O[C@@H](OC3CCCCC3c3ccccc3)C[C@H]3OC(=O)[C@@H]1C32 (some centres undefined) | > 100 | > 100 | > 100 | > 100 | – | > 100 | > 100 | > 100 | > 100 | > 100 | > 100 | – | > 100 | – | > 100 | > 100 | 21.9 | > 100 | > 100
